Laboratory results: PMC8746696 (Molecules, 2021)
Read-outs that look alike come from different tables or passages of the source.

How the values were obtained:
TDP1 = TDP1 (Homo sapiens, UniProt Q9NUW8); test: Real-time fluorescence detection of TDP1 activity (FAM/BHQ1 oligonucleotide biosensor); type: biochemical
Source text: For real-time detection of TDP1 activity, we used the oligonucleotide biosensor based on the ability of TDP1 to remove fluorophore quenchers from the 3′-end of DNA [29]. The hexadecameric oligonucleotide carried 5(6)-carboxyfluorescein (FAM) at the 5′-end and fluorophore quencher BHQ1 (Black Hole Quencher-1) at the 3′-end. TDP1 inhibitors prevent the removal of fluorophore quenchers, thus reducing fluorescence intensity.
TDP1 activity was detected, as described by intensity measurement in a reaction of quencher removal from a fluorophore quencher–coupled DNA oligonucleotide catalyzed by TDP1. The reaction was carried out at different concentrations of inhibitors (the control samples contained 1% of DMSO). The reaction mixtures contained TDP1 buffer (50 mM Tris-HCl pH 8.0, 50 mM NaCl, and 7 mM β-mercaptoethanol), 50 nM biosensor, and an inhibitor being tested. Purified TDP1 (1.5 nM) triggered the reaction. The biosensor (5′-[FAM] AAC GTC AGGGTC TTC C [BHQ]-3′) was synthesized in the Laboratory of Nucleic Acid Chemistry at the Institute of Chemical Biology and Fundamental Medicine (Novosibirsk, Russia).
The reactions were incubated on a POLARstar OPTIMA fluorimeter (BMG LABTECH, GmbH, Ortenberg, Germany) to measure fluorescence every 60 s (ex. 485/em. 520 nm) during the linear phase (here, data from minute 0 to minute 8). The values of IC50 were determined using a six-point concentration response curve in a minimum of three independent experiments and were calculated using MARS Data Analysis 2.0 (BMG LABTECH, Ortenberg, Germany).

recombinant human TDP2 = target: T1, recombinant human TDP2 (Homo sapiens, UniProt O95551); test: Gel-based TDP2 activity assay (removal of 5'-tyrosine from oligonucleotide, PAGE); type: biochemical; parameters: key to Tdp2 activity, c 200 µM / Tdp2 (inhibitor concentration 1 mM): TDP2 active (+); -: inactive (−); details: for Tdp2 activity, c 200 µM: c 200 µM (Table S3 head); for Tdp2 (inhibitor concentration 1 mM) / remaining activity at 1000 µM: inhibitor 1 mM; for remaining activity at 1000 µM: residual enzyme activity, read-out: TDP2 (Inhibitor Concentration 1 mM), residual activity of TDP2
T1 sequence (O95551 1-362): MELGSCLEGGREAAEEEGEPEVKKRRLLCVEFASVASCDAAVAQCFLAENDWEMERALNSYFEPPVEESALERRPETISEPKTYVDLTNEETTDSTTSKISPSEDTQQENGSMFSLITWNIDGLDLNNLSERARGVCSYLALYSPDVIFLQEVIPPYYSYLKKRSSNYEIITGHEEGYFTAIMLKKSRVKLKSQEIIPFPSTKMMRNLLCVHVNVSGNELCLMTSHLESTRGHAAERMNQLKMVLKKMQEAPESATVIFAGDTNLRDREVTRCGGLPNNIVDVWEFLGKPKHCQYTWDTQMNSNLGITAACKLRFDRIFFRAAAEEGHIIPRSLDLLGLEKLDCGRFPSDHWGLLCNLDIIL
Protocol: We investigated the activity against the TDP2 enzyme for compounds 4–10, 12–15, and 17–19 (Table 1). TDP2 was tested for its ability to eliminate tyrosine residue from the 5’-end of the oligonucleotide substrate. The TDP2 reaction products were separated under denaturing conditions in polyacrylamide gel (PAGE). […] Note that as different assays formats were used for TDP1 and TDP2 inhibition, the value of these assays cannot be directly compared. A paper on derivatives of usnic acid as effective TDP1 inhibitors and mild inhibitors of TDP2 was recently published. […] More inhibitors of this enzyme have also been reported in the literature. Obviously, further work for increasing activity against TDP2 is needed.
The oligonucleotide with tyrosine residue on the 5′-end (5′-tyrosine-AAC GTC AGG GTC TTC C-FAM-3′) was used for the TDP2 enzyme activity assay. The TDP2 reaction products were separated under denaturing conditions in polyacrylamide gel (PAGE). The reaction was performed in a final volume of 20 μL using 100 nM substrate incubated with 200 nM recombinant human TDP2 in the absence or presence of the inhibitor for 10 min at 37 °C in a buffer containing 50 mM Tris-HCl, pH 8.0, 50 mM NaCl, 7 mM β-mercaptoethanol. Reactions were terminated by the addition of gel loading buffer contained 10% formamide, 7 M carbamide, 0.1% xylene cyanol, and 0,1% bromophenol blue. The samples were heated at 90 °C for 7 min before loading on the gel. The reaction products were separated by electrophoresis in a 20% denaturing PAGE with 7 M carbamide. A Typhoon FLA 9500 phosphorimager (GE Healthcare) was used for gel scanning and imaging. Each experiment was carried out in three independent replicates. The data were analyzed with QuantityOne 4.6.7 software.

[1] = Intrinsic cytotoxicity, EZ4U assay, HeLa; details: human, HeLa cells
Protocol: (§1) Next, we examined the intrinsic cytotoxicity of the compounds on HeLa cervical cancer cells and human embryonic kidney derived cells HEK293A.
(§2) Cytotoxicity of the compounds to HeLa (human cervical cancer) and HEK293A (human embryonic kidney) cell lines was examined using the EZ4U Cell Proliferation and Cytotoxicity Assay (Biomedica, Vienna, Austria), according to the manufacturer’s protocols. The cells were grown in Iscove’s modified Dulbecco’s medium (IMDM) with 40 μg/mL gentamicin, 50 IU/mL penicillin, 50 μg/mL streptomycin (MP Biomedicals, Waltham, MA, USA), and 10% of fetal bovine serum (Biolot, Saint Petersburg, Russia) in a 5% CO2 atmosphere. After the formation of a 30–50%monolayer, the tested compounds were added to the medium. […] The volume of the added reagents was 1/100 of the total volume of the culture medium, and the amount of DMSO was 1% of the final volume. Control cells were grown in the presence of 1% DMSO. The cell culture was monitored for three days.

[2] = Intrinsic cytotoxicity, EZ4U assay, HEK293A; details: human, HEK293A cells
Protocol: as §1, §2

[3] = read-out: IC50 (Tdp1, Table S4)
[4] = concentration that inhibits the activity of the enzyme by 50%, read-out: TDP1 IC50

Chain of TDP1 (Q9NUW8 whole entry): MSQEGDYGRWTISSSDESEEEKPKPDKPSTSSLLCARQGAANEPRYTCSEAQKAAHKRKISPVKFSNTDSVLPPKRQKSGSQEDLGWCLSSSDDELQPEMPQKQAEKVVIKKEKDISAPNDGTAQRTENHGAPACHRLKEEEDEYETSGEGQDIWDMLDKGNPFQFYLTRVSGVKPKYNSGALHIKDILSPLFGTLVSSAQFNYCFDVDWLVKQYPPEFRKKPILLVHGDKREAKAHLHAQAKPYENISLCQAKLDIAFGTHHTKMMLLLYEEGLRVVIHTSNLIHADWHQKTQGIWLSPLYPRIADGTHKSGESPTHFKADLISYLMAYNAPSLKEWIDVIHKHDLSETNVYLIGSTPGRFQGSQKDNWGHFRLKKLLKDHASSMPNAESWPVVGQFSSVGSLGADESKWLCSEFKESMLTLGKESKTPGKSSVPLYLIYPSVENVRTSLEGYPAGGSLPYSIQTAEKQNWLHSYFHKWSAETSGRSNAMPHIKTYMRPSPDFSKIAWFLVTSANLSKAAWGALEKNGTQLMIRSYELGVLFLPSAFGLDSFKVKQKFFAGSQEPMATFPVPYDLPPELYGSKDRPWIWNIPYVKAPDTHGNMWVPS

SMILES | IC50 (TDP1; [3]) | Tdp2 activity, c 200 µM (recombinant human TDP2) | Tdp2 (inhibitor concentration 1 mM) (recombinant human TDP2) | melting point | IC50 (TDP1; [4]) | remaining activity at 1000 µM (recombinant human TDP2) | CC50 at 72 h [1] | CC50 at 72 h [2]
C[C@H](CCC(=O)O)[C@H]1CC[C@H]2[C@@H]3CC[C@@H]4C[C@H](OCc5ccccc5)CC[C@]4(C)[C@H]3C[C@H](OCc3ccccc3)[C@]12C [Compound 1, 3α,12α-Dibenzyloxy-5β-cholan-24-oic acid] | 440 nM | + | + | 181.2 °C (dec.) |  |  |  | 
C[C@H](CCC(=O)O)[C@H]1CC[C@H]2[C@@H]3CC[C@@H]4C[C@H](OCc5ccccc5)CC[C@]4(C)[C@H]3C[C@H](O)[C@]12C [Compound 2, 3α-Benzyloxy-12α-hydroxy-5β-cholan-24-oic Acid] | 18300 nM | + | + | 86 °C (dec.) |  |  |  | 
C[C@H](CCC(=O)O)[C@H]1CC[C@H]2[C@@H]3CC[C@@H]4C[C@H](OCc5ccccc5)CC[C@]4(C)[C@H]3CC(=O)[C@]12C [Compound 3, 3α-Benzyloxy-12α-oxo-5β-cholan-24-oic Acid] | 780 nM | + | + | 147.9 °C |  |  |  | 
C[C@H](CCC(=O)NCCc1c[nH]c2ccccc12)[C@H]1CC[C@H]2[C@@H]3CC[C@@H]4C[C@H](OCc5ccccc5)CC[C@]4(C)[C@H]3C[C@H](OCc3ccccc3)[C@]12C [Compound 4, N-(2″-(1H-Indol-3′-yl)ethyl)-3α,12α-dibenzyloxy-5β-cholane-24-amide] |  | + | + |  | 750 ± 170 nM | 35 ± 4% | > 100000 nM | > 100000 nM
C[C@H](CCC(=O)NCCc1c[nH]c2ccccc12)[C@H]1CC[C@H]2[C@@H]3CC[C@@H]4C[C@H](OCc5ccccc5)CC[C@]4(C)[C@H]3CC(=O)[C@]12C [Compound 6, N-(2″-(1H-Indol-3′-yl)ethyl)-3α-benzyloxy-12-oxo-5β-cholane-24-amide] |  | + | + |  | 590 ± 130 nM | 45 ± 4% | > 100000 nM | > 100000 nM
C[C@H](CCC(=O)Nc1ccc(Br)cc1)[C@H]1CC[C@H]2[C@@H]3CC[C@@H]4C[C@H](OCc5ccccc5)CC[C@]4(C)[C@H]3C[C@H](OCc3ccccc3)[C@]12C [Compound 7, N-(4′-Bromophenyl)-3α,12α-dibenzyloxy-5β-cholane-24-amide] |  | + | + | 186.2 to 191.3 °C | 970 ± 460 nM | 44 ± 5% |  | 
C[C@H](CCC(=O)Nc1ccc(Br)cc1)[C@H]1CC[C@H]2[C@@H]3CC[C@@H]4C[C@H](OCc5ccccc5)CC[C@]4(C)[C@H]3CC(=O)[C@]12C [Compound 9, N-(4′-Bromophenyl)-3α-benzyloxy-12-oxo-5β-cholane-24-amide] |  | + | + |  | 710 ± 340 nM | 39 ± 6% | > 100000 nM | > 100000 nM
C[C@H](CCC(=S)Nc1ccc(Br)cc1)[C@H]1CC[C@H]2[C@@H]3CC[C@@H]4C[C@H](OCc5ccccc5)CC[C@]4(C)[C@H]3C[C@H](OCc3ccccc3)[C@]12C [Compound 11, N-(4′-Bromophenyl)-3α,12α-dibenzyloxy-5β-cholane-24-thioamide] |  |  |  | 58 °C (dec.) |  |  |  | 
C[C@H](CCC(=O)O/N=C(\N)Cc1ccc(Br)cc1)[C@H]1CC[C@H]2[C@@H]3CC[C@@H]4C[C@H](OCc5ccccc5)CC[C@]4(C)[C@H]3C[C@H](OCc3ccccc3)[C@]12C [Compound 12] |  | + | + | 80.2 to 83.9 °C | 320 ± 130 nM | < 50% |  | 
C[C@H](CCc1nc(Cc2ccc(Br)cc2)no1)[C@H]1CC[C@H]2[C@@H]3CC[C@@H]4C[C@H](OCc5ccccc5)CC[C@]4(C)[C@H]3C[C@H](OCc3ccccc3)[C@]12C [Compound 13, 5′-(24-Nor-3α,12α-dibenzyloxy-5β-cholan-23-yl)-3′-(methyl(4″-bromophenyl))-1′,2′,4′-oxadiazole] |  | - | - |  | 530 ± 230 nM | > 50% |  | 
C[C@H](CCC(=O)O/N=C(\N)c1ccc(Br)cc1)[C@H]1CC[C@H]2[C@@H]3CC[C@@H]4C[C@H](OCc5ccccc5)CC[C@]4(C)[C@H]3C[C@H](OCc3ccccc3)[C@]12C [Compound 14] |  | + | + | 144.5 to 147.4 °C | 330 ± 150 nM | < 50% |  | 
C[C@H](CCc1nc(-c2ccc(Br)cc2)no1)[C@H]1CC[C@H]2[C@@H]3CC[C@@H]4C[C@H](OCc5ccccc5)CC[C@]4(C)[C@H]3C[C@H](OCc3ccccc3)[C@]12C [Compound 15, 5′-(24-Nor-3α,12α-Dibenzyloxy-5β-cholan-23-yl)-3′-(4″-bromophenyl)-1′,2′,4′-oxadiazole] |  | - | - | 130.2 to 135.5 °C | 420 ± 300 nM | > 50% |  | 
COC(=O)CC[C@@H](C)[C@H]1CC[C@H]2[C@@H]3CC[C@@H]4C[C@H](OCc5ccccc5)CC[C@]4(C)[C@H]3C[C@H](OCc3ccccc3)[C@]12C [Compound 16, Methyl 3α,12α-Dibenzyloxy-5β-cholan-24-oate] |  | - | - | 93.3 to 93.7 °C |  |  |  | 
C[C@H](CCC(=O)NN)[C@H]1CC[C@H]2[C@@H]3CC[C@@H]4C[C@H](OCc5ccccc5)CC[C@]4(C)[C@H]3C[C@H](OCc3ccccc3)[C@]12C [Compound 17, 3α,12α-Dibenzyloxy-5β-cholan-24-hydrazide] |  | + | + | 179 to 180 °C | 230 ± 80 nM | > 50% |  | 
C[C@H](CCC(=O)N/N=C/c1ccc(Br)cc1)[C@H]1CC[C@H]2[C@@H]3CC[C@@H]4C[C@H](OCc5ccccc5)CC[C@]4(C)[C@H]3C[C@H](OCc3ccccc3)[C@]12C [Compound 18, N’-(4″-Bromobenzylidene)-3α,12α-dibenzyloxy-5β-cholan-24-hydrazide] |  | + | + | 147.7 to 150 °C | 510 ± 210 nM | < 50% |  | 
C[C@H](CCc1nnc(-c2ccc(Br)cc2)o1)[C@H]1CC[C@H]2[C@@H]3CC[C@@H]4C[C@H](OCc5ccccc5)CC[C@]4(C)[C@H]3C[C@H](OCc3ccccc3)[C@]12C [Compound 19, 2′-(24-Nor-3α,12α-dibenzyloxy-5β-cholan-23-yl)-5′-(4″-bromophenyl)-1′,3′,4′-oxadiazole] |  |  |  | 131.4 °C (dec.) | 1010 ± 430 nM | < 50% |  | 
